The values that follow come from US20080274060A1, “Therapeutic Foam” (priority 2005, published 2008).

This data set can be described thus: In vitro absorption of foam/gas in fresh human venous blood. The class given is in vitro ADME. As for the experimental part:
In vitro experiments were conducted to determine the absorption of foam made with different gases in fresh human venous blood.
A 20 ml polypropylene syringe barrel was prepared by puncturing its side wall with a relatively large hypodermic needle to make a hole approximately 1 mm in diameter. This hole was then covered by securing a piece of clear flexible vinyl sheet over it with clear adhesive tape. A small magnetic stirrer element was introduced into the syringe barrel and the plunger then replaced. 20 ml of human venous blood was then with withdrawn in the usual manner from a human subject using the specially prepared syringe fitted with a hypodermic needle.
The hypodermic needle was removed and the syringe then placed on a magnetic stirrer unit so that the magnetic element in the syringe thoroughly agitated the blood. The Luer nozzle of the syringe was then connected to a 50 cm piece of manometer tubing which was arranged horizontally and left open at one end. The manometer tubing was secured against a scale.
A 0.5 ml measuring syringe with a fine pre-fitted needle was then filled with foam made from 1% polidocanol solution and air.
The needle of the 0.5 ml syringe was then introduced through the vinyl sheet on the side wall of the 20 ml syringe. […] The 0.5 ml aliquot of foam was then injected quickly and simultaneously a timer started (t0). As the foam displaced blood in the 20 ml syringe, the column of blood from the 20 ml syringe was displaced into the manometer tubing and the distance along the tubing reached by the distal end of the blood column was noted against the scale. The scale itself comprised spaced marker lines equally spaced at about 1 cm intervals.
As the gas in the foam started to be absorbed by the blood, the blood in the manometer tubing started to recede back towards the syringe. After the column appeared to have stopped moving, the timer was stopped (tF). The position of the distal end was again noted.
In this experiment, the air foam test was only observed for a few minutes after tF. […] A 20 ml syringe of fresh human venous blood, as in the above experiments, was injected with a 0.5 ml aliquot of a foam containing a percentage of nitrogen. The contents of the syringe were agitated as above and a period of 24 hours allowed to elapse.

For the compound `O=O` [Oxygen gas, oxygen gas], the “Absorbed volume at tF” value (0.5 ml aliquot in 20 ml blood) turned out to be 0.46 mL. Under “at tF”, the Unabsorbed gas % is given as 8% and the Unabsorbed gas ml is 0.04 mL. Also, the “Position of blood at tF ("z")” value (manometer scale intervals, 45 intervals approx. 0.5 ml) is 5.5. Besides, the “tF” value (time until blood column stopped moving, 0.5 ml aliquot in 20 ml blood) is 140 s.
